Laboratory results reported in patent US7705004B2, “Protein kinase inhibitors” (Portola Pharmaceuticals, Inc., priority 2007, dated 2010).
pIC50: −log10 of the molar value.

Experiments:
Assay type in all cases: cell-based
[1] = tested on: IL-4 induced STAT-6 phosphorylation (JAK1/JAK3) in Ramos B-cells; test: JAK3/STAT6 cellular assay: IL-4 induced STAT-6 phosphorylation, intracellular flow cytometry; conditions: Homo sapiens, Ramos B-cells pre-treated 1 hour, IL-4 10 minutes
Text: Similar types of assays can be used to assess JAK kinase inhibitory activity and to determine the degree of selectivity of the particular compound as compared to Syk kinase. One means of assaying for such inhibition is detection of the effect of the compounds of the present invention on the upregulation of downstream gene products. In the Ramos/IL4 assay, B-cells are stimulated with the cytokine Interleukin-4 (IL-4) leading to the activation of the JAK/Stat pathway through phosphorylation of the JAK family kinases, JAK1 and JAK3, which in turn phosphorylate and activate the transcription factor Stat-6. […] To study the effect of inhibitors (e.g., the 2,4-substituted pyrimindinediamine compounds described herein) on the JAK1 and JAK3 kinases, human Ramos B-cells are stimulated with human IL-4. 10′ post-stimulation, cells are subjected to intracellular flow cytometry to measure the extent of STAT-6 phosphorylation. 20 to 24 hours post-stimulation, cells are stained for upregulation of CD23 and analyzed using flow cytometry.
Stimulation of Ramos B-cells by IL-4 leads to signaling through JAK1/JAK3 resulting in phosphorylation of STAT6 (signal transducers and activators of transcription). The effect of compounds on inhibition of JAK3 and/or JAK1 can be assessed by measuring the amount of phosphorylated STAT6. This may be performed by Western blotting and/or intracellular flow cytometry using a specific phospho-STAT6 antibody. Data describing compound inhibition of IL-4 induced STAT-6 phosphorylation (measured by intracellular flow cytometry) for Compound 1-1 (Example 1) is presented in the following table.
For the data in the above Table, Ramos B-cells were pre-treated for 1 hour with increasing concentrations of Compound 1-1, as indicated prior to addition of IL-4. Cells were incubated with IL-4 for 10 minutes, and then subjected to intracellular flow cytometry to measure the percent inhibition of IL-4 induced Stat-6, as shown.

[2] = tested on: human platelet-rich plasma (PRP); test: Convulxin-induced aggregation assay (cuvette light transmittance); conditions: 125-250 ng/mL Convulxin, read-out: IC50, inhibition of convulxin-induced aggregation of platelet rich plasma
Procedure: For preparation of human platelet-rich plasma (PRP) for aggregation assays, human venous blood was collected from healthy, drug-free volunteers into 0.38% sodium citrate (0.013 M, pH 7.0 final). PRP was prepared by centrifugation of whole blood at 160×g for 20 minutes at room temperature. The PRP layer was removed, transferred to a new tube, and the platelet count was adjusted, if necessary, to achieve a platelet concentration of ˜3×10^8 platelets/mL using platelet-poor plasma (PPP). PPP was prepared by centrifugation of the remaining blood sample (after removal of PRP) for 20 minutes at 800×g. This preparation of PRP may be subsequently used for aggregation assays in either a 96-well plate or standard cuvette aggregometry.
Inhibition of Convulxin-induced aggregation was determined by cuvette light transmittance aggregation assays. Serial dilutions (1:2) of test compounds were prepared in 30% DMSO in a 96-well V-bottom plate (final DMSO concentration in the cuvette was 0.3%). The test compound (5 μl of serial dilutions in DMSO) was preincubated with PRP for 20 minutes prior to initiation of the aggregation reactions, which were performed in a ChronoLog aggregometer by addition of agonist (125-250 ng/mL Convulxin) to 495 μL of PRP at 37° C. The aggregation reaction was recorded for 4 minutes, and the maximum extent of aggregation was determined by the difference in extent of aggregation at baseline, compared to the maximum aggregation that occurred during the 4 minute period of the assay. Inhibition of aggregation was calculated as the maximum aggregation observed in the presence of inhibitor, compared to that in the absence of inhibitor. IC50s were derived by non-linear regression analysis.

human washed platelets = test: Inhibition of Convulxin-mediated platelet calcium mobilization in vitro; conditions: 125 ng/mL Convulxin
Procedure: Inhibition of Convulxin-induced calcium mobilization was determined in human washed platelets using the FLIPR Calcium 3 Assay Kit (Molecular Devices, Sunnyvale, Calif.). For preparation of washed platelets, human venous blood was collected from healthy, drug-free volunteers into ACD (85 mM sodium citrate, 111 mM glucose, 71.4 mM citric acid) containing PGI2 (1.25 mL ACD containing 0.2 μM PGI2 final; PGI2 from Sigma, St. Louis, Mo.). Platelet-rich plasma (PRP) was prepared by centrifugation at 160×g for 20 minutes at room temperature. Washed platelets were prepared by centrifuging PRP for 10 minutes at 730×g and resuspending the platelet pellet in CGS (13 mM sodium citrate, 30 mM glucose, 120 mM NaCl; 2 mL CGS/10 mL original blood volume). The wash in CGS was repeated a second time, the platelets were collected by centrifugation at 730 g for 10 minutes and resuspended at a concentration of 3×10^8 platelets/mL in Hepes-Tyrode's buffer (10 mM Hepes, 138 mM NaCl, 5.5 mM glucose, 2.9 mM KCl, 12 mM NaHCO3, pH 7.4). This platelet suspension was allowed to rest for 45 minutes at room temperature before use in calcium mobilization assays.
For 96-well plate calcium-mobilization experiments, equal volumes of 3×10^8 washed platelets/mL were incubated with equal volumes of Calcium-3 Assay Reagent A resuspended in 1× Hank's Balanced Salt Solution, pH 7.4, 20 mM Hepes buffer. The total reaction volume of 0.2 mL/well included 1.5×10^8/mL washed platelet/Calcium-3 Assay reagent A mix, 10 μM Eptifibatide (Millennium Pharmaceuticals Inc, Cambridge, Mass.) and serial dilutions (1:3) of test compounds in 0.75% DMSO. DMSO alone was added to 1 well of each 8 set to allow for a maximal calcium-mobilization reading. After a 20 minute preincubation at room temperature, the 96-well microplate reader was loaded into the FlexStation (Molecular Devices, Sunnyvale, Calif.). The FlexStation experimental conditions for measuring calcium mobilization were set up using SOFTMax Pro. The settings used were as follows: Fluorescence parameters-assay mode: flex, excitation 485 nm, 525 nM with a cut-off of 515 nM; Parameters—PMT sensitivity-6, pipette height 230 μl, read time 2 minutes and 40 seconds, read intervals 2 seconds, temperature-23-25° C. After 18 seconds of baseline reading, calcium mobilization was initiated by the addition of Convulxin to a final concentration of 125 ng/mL. Inhibition of calcium mobilization was calculated as the maximum response observed in the presence of inhibitor, compared to that in the absence of inhibitor. IC50s were then derived by non-linear regression analysis.

CC(=O)N1CCN(c2ccc(Nc3nc(Nc4ccc5cn[nH]c5c4)c4cc[nH]c4n3)cc2)CC1 [Compound 1-1, 1-(4-(4-(4-(1H-indazol-6-ylamino)-7H-pyrrolo[2,3-d]pyrimidin-2-ylamino)phenyl)piperazin-1-yl)ethanone]
inhibition at 0.05 µM ([1]; 0.05 μM compound): 0%
inhibition at 0.125 µM ([1]; 0.125 μM compound): 6%
inhibition at 0.25 µM ([1]; 0.25 μM compound): 22%
inhibition at 0.5 µM ([1]; 0.5 μM compound): 33%
inhibition at 1 µM ([1]; 1 μM compound): 41%
inhibition at 2 µM ([1]; 2 μM compound): 49%
pIC50 [2]: ≥ 4.30
pIC50 (human washed platelets): > 6.00
